Measured values as given in US20210070748A1, “INHIBITORS OF BRUTONS TYROSINE KINASE” (Pharmacyclics LLC, priority 2015, published 2021).

Columns and labels:
Assay type in all cases: biochemical
BTK-WT = molecular target: T1, BTK-WT (Homo sapiens, UniProt Q06187); experiment: Btk in vitro inhibitory activity (one of Method A TR-FRET, Method B electrophoretic mobility shift, Method C radiometric filter binding); settings: D-compounds panel data; read-out: IC50 BTK-WT
T1 construct: purified from insect cells as a full-length construct containing an N-terminal 6X-His tag; His6 (N); made in house; host or cells: insect cells (baculovirus Sf21 in Method B)

TEC = molecular target: T2, TEC (Homo sapiens, UniProt P42680); experiment: Inhibition of a panel of kinases, in vitro HotSpot kinase assay: TEC; settings: D-compounds panel data; 1 μM ATP
T2 sequence (P42680 1-631): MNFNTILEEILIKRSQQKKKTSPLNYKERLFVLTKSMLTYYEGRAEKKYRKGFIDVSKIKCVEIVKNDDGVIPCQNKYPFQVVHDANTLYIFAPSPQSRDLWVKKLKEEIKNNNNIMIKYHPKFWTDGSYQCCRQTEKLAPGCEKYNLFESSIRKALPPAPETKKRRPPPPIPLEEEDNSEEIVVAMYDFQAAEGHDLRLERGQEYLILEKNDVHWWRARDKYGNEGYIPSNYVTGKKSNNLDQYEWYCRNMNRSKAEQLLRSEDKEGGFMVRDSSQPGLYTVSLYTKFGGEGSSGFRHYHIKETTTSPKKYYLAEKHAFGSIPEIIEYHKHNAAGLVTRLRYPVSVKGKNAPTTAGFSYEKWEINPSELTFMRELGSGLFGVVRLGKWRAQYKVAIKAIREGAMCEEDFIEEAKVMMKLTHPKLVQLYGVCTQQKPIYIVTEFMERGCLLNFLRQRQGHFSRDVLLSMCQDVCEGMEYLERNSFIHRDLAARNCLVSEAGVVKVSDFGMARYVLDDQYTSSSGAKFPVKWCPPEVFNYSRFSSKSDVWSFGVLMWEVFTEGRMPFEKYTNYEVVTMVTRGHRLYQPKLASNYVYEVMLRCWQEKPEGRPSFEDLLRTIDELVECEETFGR
Method: (§1) The degree of inhibition of a panel of kinases is determined using the in vitro HotSpot kinase assay (purified enzymes, ^33P-ATP, an appropriate substrate and 1 μM ATP).

LCK = LCK (Homo sapiens, UniProt P06239); experiment: Inhibition of a panel of kinases, in vitro HotSpot kinase assay: LCK; settings: D-compounds panel data; 1 μM ATP; read-out: IC50 LCK
SRC = SRC (Homo sapiens, UniProt P12931); experiment: Inhibition of a panel of kinases, in vitro HotSpot kinase assay: SRC; settings: D-compounds panel data; 1 μM ATP
Method: as §1

SRC, sequence (P12931 whole entry): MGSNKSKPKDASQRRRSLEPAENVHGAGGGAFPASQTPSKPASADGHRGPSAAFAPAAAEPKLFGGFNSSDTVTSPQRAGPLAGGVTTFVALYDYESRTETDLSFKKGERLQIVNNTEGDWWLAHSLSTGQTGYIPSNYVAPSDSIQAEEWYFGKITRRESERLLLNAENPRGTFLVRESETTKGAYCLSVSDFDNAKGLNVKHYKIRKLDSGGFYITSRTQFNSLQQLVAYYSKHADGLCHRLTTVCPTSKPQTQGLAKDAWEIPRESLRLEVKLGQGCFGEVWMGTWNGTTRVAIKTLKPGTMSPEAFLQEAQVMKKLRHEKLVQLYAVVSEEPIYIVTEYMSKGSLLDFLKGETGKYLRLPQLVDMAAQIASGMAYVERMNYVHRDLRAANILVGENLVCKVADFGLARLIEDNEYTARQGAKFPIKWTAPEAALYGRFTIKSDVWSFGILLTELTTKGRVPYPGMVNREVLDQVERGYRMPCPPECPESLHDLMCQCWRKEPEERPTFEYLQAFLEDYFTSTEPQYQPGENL
T1 sequence (Q06187 whole entry): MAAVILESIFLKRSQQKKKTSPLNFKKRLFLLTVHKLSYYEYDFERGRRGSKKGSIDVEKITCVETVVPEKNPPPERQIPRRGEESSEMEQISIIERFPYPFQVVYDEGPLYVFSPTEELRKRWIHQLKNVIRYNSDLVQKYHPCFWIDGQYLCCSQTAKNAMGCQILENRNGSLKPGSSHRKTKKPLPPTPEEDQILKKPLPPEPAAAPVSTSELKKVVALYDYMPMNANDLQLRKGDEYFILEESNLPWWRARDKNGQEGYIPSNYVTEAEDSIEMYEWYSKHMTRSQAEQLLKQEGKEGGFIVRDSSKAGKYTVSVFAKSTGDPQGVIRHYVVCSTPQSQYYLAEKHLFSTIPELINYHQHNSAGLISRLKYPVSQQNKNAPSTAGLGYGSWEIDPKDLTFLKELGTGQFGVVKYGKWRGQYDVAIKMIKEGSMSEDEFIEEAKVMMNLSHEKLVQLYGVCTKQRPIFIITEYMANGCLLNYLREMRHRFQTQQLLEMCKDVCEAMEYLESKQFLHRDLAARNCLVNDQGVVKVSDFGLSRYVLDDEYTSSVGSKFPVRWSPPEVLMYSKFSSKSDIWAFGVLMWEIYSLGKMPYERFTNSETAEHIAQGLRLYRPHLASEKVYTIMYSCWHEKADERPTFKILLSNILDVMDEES
LCK, sequence (P06239 whole entry): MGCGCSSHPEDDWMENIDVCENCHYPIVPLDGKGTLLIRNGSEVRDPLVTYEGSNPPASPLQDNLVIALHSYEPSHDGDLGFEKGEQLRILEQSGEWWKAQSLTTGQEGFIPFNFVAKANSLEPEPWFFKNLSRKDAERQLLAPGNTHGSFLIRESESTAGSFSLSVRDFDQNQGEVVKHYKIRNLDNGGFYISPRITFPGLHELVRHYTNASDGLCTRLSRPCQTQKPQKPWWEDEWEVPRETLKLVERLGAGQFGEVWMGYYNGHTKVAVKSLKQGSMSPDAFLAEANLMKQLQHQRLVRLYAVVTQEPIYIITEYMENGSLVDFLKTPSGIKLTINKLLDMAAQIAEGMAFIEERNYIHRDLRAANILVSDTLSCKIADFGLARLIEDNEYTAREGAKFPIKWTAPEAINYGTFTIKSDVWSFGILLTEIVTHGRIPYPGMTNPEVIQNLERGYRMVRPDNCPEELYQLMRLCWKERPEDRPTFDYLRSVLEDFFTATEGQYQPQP

Compound | IC50 (BTK-WT) [µM] | IC50 (TEC) [µM] | IC50 (LCK) [µM] | IC50 (SRC) [µM]
C[C@@H]1[C@H](NC(=O)c2ccc(C(O)C(F)(F)F)cc2)CCCN1c1cnc(C(N)=O)c(Nc2cnn(C)c2)n1 (single isomer, unassigned) [Example D-249] | ≤ 0.01 | ≤ 0.01 | 0.01 to 0.1 | 0.01 to 0.1
C[C@@H]1[C@H](NC(=O)c2ccc(C(O)C(F)(F)F)cc2)CCCN1c1cnc(C(N)=O)c(Nc2cnn(C)c2)n1 (single isomer, unassigned) [Example D-250] | ≤ 0.01 | ≤ 0.01 | 0.01 to 0.1 | 0.01 to 0.1
C[C@@H]1[C@H](NC(=O)c2ccc(C(C)(O)CO)cc2)CCCN1c1cnc(C(N)=O)c(Nc2cnn(C)c2)n1 (single isomer, unassigned) [Example D-256] | ≤ 0.01 | ≤ 0.01 | 0.01 to 0.1 | 0.01 to 0.1
C[C@@H]1[C@H](NC(=O)c2ccc(C(C)(O)CO)cc2)CCCN1c1cnc(C(N)=O)c(Nc2cnn(C)c2)n1 (single isomer, unassigned) [Example D-265] | ≤ 0.01 | ≤ 0.01 | 0.1 to 1 | 0.01 to 0.1
C[C@@H]1[C@H](NC(=O)c2cc3c(n2C)CC(C)(C)C3)CCCN1c1cnc(C(N)=O)c(Nc2cnn(C)c2)n1 [Example D-19, 3-[(1-methyl-1H-pyrazol-4-yl)amino]-5-[(2R,3R)-2-methyl-3-{1,5,5-trimethyl-1H,4H,5H,6H-cyclopenta[b]pyrrole-2-amido}piperidin-1-yl]pyrazine-2-carboxamide] | ≤ 0.01 | 0.01 to 0.1 | 0.1 to 1 | 0.1 to 1
C[C@@H]1[C@H](NC(=O)c2ccc(C(C)(C)C)cc2)CCCN1c1cnc(C(N)=O)c(Nc2cnn(C)c2)n1 [Example D-22, 5-[(2R,3R)-3-(4-tert-butylbenzamido)-2-methylpiperidin-1-yl]-3-[(1-methyl-1H-pyrazol-4-yl)amino]pyrazine-2-carboxamide] | ≤ 0.01 | 0.01 to 0.1 | 1 to 10 | 0.1 to 1
C[C@@H]1[C@H](NC(=O)c2ccc(C3COC3)cc2)CCCN1c1cnc(C(N)=O)c(Nc2cnn(C)c2)n1 [Example D-23, 3-[(1-methyl-1H-pyrazol-4-yl)amino]-5-[(2R,3R)-2-methyl-3-[4-(oxetan-3-yl)benzamido]piperidin-1-yl]pyrazine-2-carboxamide] | ≤ 0.01 | ≤ 0.01 | 0.1 to 1 | 0.01 to 0.1
C[C@@H]1[C@H](NC(=O)c2ccc(N(C)C)cc2)CCCN1c1cnc(C(N)=O)c(Nc2cnn(C)c2)n1 [Example D-24, 5-[(2R,3R)-3-[4-(dimethylamino)benzamido]-2-methylpiperidin-1-yl]-3-[(1-methyl-1H-pyrazol-4-yl)amino]pyrazine-2-carboxamide] | ≤ 0.01 | ≤ 0.01 | 0.01 to 0.1 | 0.1 to 1
C[C@@H]1[C@H](NC(=O)c2ccc3ncsc3c2)CCCN1c1cnc(C(N)=O)c(Nc2cnn(C)c2)n1 [Example D-243, N-[(2R,3R)-1-{5-carbamoyl-6-[(1-methyl-1H-pyrazol-4-yl)amino]pyrazin-2-yl}-2-methylpiperidin-3-yl]-1,3-benzothiazole-6-carboxamide] | ≤ 0.01 | ≤ 0.01 | 0.01 to 0.1 | 0.01 to 0.1
Cc1cc2cc(C(=O)N[C@@H]3CCCN(c4cnc(C(N)=O)c(Nc5cnn(C)c5)n4)[C@@H]3C)ccc2o1 [Example D-246, 3-[(1-methyl-1H-pyrazol-4-yl)amino]-5-[(2R,3R)-2-methyl-3-(2-methyl-1-benzofuran-5-amido)piperidin-1-yl]pyrazine-2-carboxamide] | ≤ 0.01 | ≤ 0.01 | 0.01 to 0.1 | 0.01 to 0.1
C[C@@H]1[C@H](NC(=O)c2cc(C(C)(C)C)on2)CCCN1c1cnc(C(N)=O)c(Nc2cnn(C)c2)n1 [Example D-247, 5-[(2R,3R)-3-(5-tert-butyl-1,2-oxazole-3-amido)-2-methylpiperidin-1-yl]-3-[(1-methyl-1H-pyrazol-4-yl)amino]pyrazine-2-carboxamide] | ≤ 0.01 | 0.01 to 0.1 | 0.1 to 1 | 0.1 to 1
COCCN(C)c1ccc(C(=O)N[C@@H]2CCCN(c3cnc(C(N)=O)c(Nc4cnn(C)c4)n3)[C@@H]2C)cc1 [Example D-248, 5-[(2R,3R)-3-{4-[(2-methoxyethyl)(methyl)amino]benzamido}-2-methylpiperidin-1-yl]-3-[(1-methyl-1H-pyrazol-4-yl)amino]pyrazine-2-carboxamide] | ≤ 0.01 | ≤ 0.01 | 0.01 to 0.1 | 0.01 to 0.1
C[C@@H]1[C@H](NC(=O)c2ccc(C(C)(C)F)cc2)CCCN1c1cnc(C(N)=O)c(Nc2cnn(C)c2)n1 [Example D-251, 5-[(2R,3R)-3-[4-(2-fluoropropan-2-yl)benzamido]-2-methylpiperidin-1-yl]-3-[(1-methyl-1H-pyrazol-4-yl)amino]pyrazine-2-carboxamide] | ≤ 0.01 | ≤ 0.01 | 0.01 to 0.1 | 0.01 to 0.1
C[C@@H]1[C@H](NC(=O)c2ccc3c(cnn3C)c2)CCCN1c1cnc(C(N)=O)c(Nc2cnn(C)c2)n1 [Example D-254, N-[(2R,3R)-1-{5-carbamoyl-6-[(1-methyl-1H-pyrazol-4-yl)amino]pyrazin-2-yl}-2-methylpiperidin-3-yl]-1-methyl-1H-indazole-5-carboxamide] | ≤ 0.01 | ≤ 0.01 | 0.1 to 1 | 0.01 to 0.1

Now from value to molecule:

IC50 (BTK-WT) [µM] | IC50 (TEC) [µM] | IC50 (LCK) [µM] | IC50 (SRC) [µM] | Compound
≤ 0.01 | 0.01 to 0.1 | 0.1 to 1 | 0.1 to 1 | C[C@@H]1[C@H](NC(=O)c2ccc(C3CC3)cc2Cl)CCCN1c1cnc(C(N)=O)c(Nc2cnn(C)c2)n1 [Example D-20, 5-[(2R,3R)-3-(2-chloro-4-cyclopropylbenzamido)-2-methylpiperidin-1-yl]-3-[(1-methyl-1H-pyrazol-4-yl)amino]pyrazine-2-carboxamide]
≤ 0.01 | 0.01 to 0.1 | 0.1 to 1 | 0.01 to 0.1 | C[C@@H]1[C@H](NC(=O)c2ccc(C3CC3)cn2)CCCN1c1cnc(C(N)=O)c(Nc2cnn(C)c2)n1 [Example D-21, 5-[(2R,3R)-3-(5-cyclopropylpyridine-2-amido)-2-methylpiperidin-1-yl]-3-[(1-methyl-1H-pyrazol-4-yl)amino]pyrazine-2-carboxamide]
0.01 to 0.1 | 0.01 to 0.1 | 0.1 to 1 | 0.1 to 1 | C[C@@H]1[C@H](NC(=O)c2ccc(C3CC3)cc2C(F)(F)F)CCCN1c1cnc(C(N)=O)c(Nc2cnn(C)c2)n1 [Example D-25, 5-[(2R,3R)-3-[4-cyclopropyl-2-(trifluoromethyl)benzamido]-2-methylpiperidin-1-yl]-3-[(1-methyl-1H-pyrazol-4-yl)amino]pyrazine-2-carboxamide]
≤ 0.01 | 0.01 to 0.1 | 0.1 to 1 | 0.01 to 0.1 | C[C@@H]1[C@H](NC(=O)c2cc(C(C)(C)C)n[nH]2)CCCN1c1cnc(C(N)=O)c(Nc2cnn(C)c2)n1 [Example D-244, 5-[(2R,3R)-3-(3-tert-butyl-1H-pyrazole-5-amido)-2-methylpiperidin-1-yl]-3-[(1-methyl-1H-pyrazol-4-yl)amino]pyrazine-2-carboxamide]
≤ 0.01 | ≤ 0.01 | 0.1 to 1 | 0.01 to 0.1 | C[C@@H]1[C@H](NC(=O)c2ccc(C3CC3)c(O)c2)CCCN1c1cnc(C(N)=O)c(Nc2cnn(C)c2)n1 [Example D-245, 5-[(2R,3R)-3-(4-cyclopropyl-3-hydroxybenzamido)-2-methylpiperidin-1-yl]-3-[(1-methyl-1H-pyrazol-4-yl)amino]pyrazine-2-carboxamide]
≤ 0.01 | ≤ 0.01 | 0.01 to 0.1 | 0.01 to 0.1 | C[C@@H]1[C@H](NC(=O)c2cc(C3CC3)n[nH]2)CCCN1c1cnc(C(N)=O)c(Nc2cnn(C)c2)n1 [Example D-252, 5-[(2R,3R)-3-(3-cyclopropyl-1H-pyrazole-5-amido)-2-methylpiperidin-1-yl]-3-[(1-methyl-1H-pyrazol-4-yl)amino]pyrazine-2-carboxamide]
≤ 0.01 | ≤ 0.01 | 0.1 to 1 | 0.01 to 0.1 | C[C@@H]1[C@H](NC(=O)c2cc(C3CC3)n(C)n2)CCCN1c1cnc(C(N)=O)c(Nc2cnn(C)c2)n1 [Example D-253, 5-[(2R,3R)-3-(5-cyclopropyl-1-methyl-1H-pyrazole-3-amido)-2-methylpiperidin-1-yl]-3-[(1-methyl-1H-pyrazol-4-yl)amino]pyrazine-2-carboxamide]
